Test results reported in ChEMBL document CHEMBL1132149, “Potent bivalent thrombin inhibitors: replacement of the scissile peptide bond at P(1)-P(1)' with arginyl ketomethylene isosteres” (J Med Chem, 1999).

Molecular target: Prothrombin (Homo sapiens, UniProt P00734)
Test: Inhibitory constant against thrombin

Compound	Ki [pM]
CC[C@@H](C)[C@H](NC(=O)[C@@H]1CCCN1C(=O)[C@H](CCC(=O)O)NC(=O)[C@H](Cc1ccc(O)cc1)NC(=O)[C@H](CC(=O)O)NC(=O)CNC(=O)CNC(=O)CNC(=O)CNC(=O)CSCC(=O)[C@H](CCCN=C(N)N)NC(=O)[C@@H]1CCCN1C(=O)[C@H](N)CC1CCCCC1)C(=O)N1CCC[C@H]1C(=O)N[C@@H](CCC(=O)O)C(=O)N[C@@H](CCC(=O)O)C(=O)N[C@@H](C)C(=O)N[C@@H](CC1CCCCC1)C(=O)N[C@H](CCC(N)=O)C(=O)O	0.35
CC[C@@H](C)[C@H](NC(=O)[C@H](CCC(=O)O)NC(=O)[C@H](CCC(=O)O)NC(=O)[C@H](Cc1ccccc1)NC(=O)[C@H](CC(=O)O)NC(=O)CNC(=O)CNC(=O)CNC(=O)CNC(=O)CSCC(=O)[C@H](CCCN=C(N)N)NC(=O)[C@@H]1CCCN1C(=O)[C@H](N)Cc1ccccc1)C(=O)N1CCC[C@H]1C(=O)N[C@@H](CCC(=O)O)C(=O)N[C@@H](CCC(=O)O)C(=O)N[C@@H](Cc1ccc(O)cc1)C(=O)N[C@@H](CC(C)C)C(=O)N[C@@H](CCC(N)=O)C(=O)O	9.4
CC[C@@H](C)[C@H](NC(=O)[C@H](CCC(=O)O)NC(=O)[C@H](CCC(=O)O)NC(=O)[C@H](Cc1ccccc1)NC(=O)[C@H](CC(=O)O)NC(=O)CNC(=O)CNC(=O)CNC(=O)CNC(=O)CN(C)CC(=O)[C@H](CCCNC(=N)N)NC(=O)[C@@H]1CCCN1C(=O)[C@H](N)Cc1ccccc1)C(=O)N1CCC[C@H]1C(=O)N[C@@H](CCC(=O)O)C(=O)N[C@@H](CCC(=O)O)C(=O)N[C@@H](Cc1ccc(O)cc1)C(=O)N[C@@H](CC(C)C)C(=O)N[C@@H](CCC(N)=O)C(=O)O	83
CC[C@@H](C)[C@H](NC(=O)[C@@H]1CCCN1C(=O)[C@H](CCC(=O)O)NC(=O)[C@H](Cc1ccc(O)cc1)NC(=O)[C@H](CC(=O)O)NC(=O)CNC(=O)CNC(=O)CNC(=O)CNC(=O)CN(C)CC(=O)[C@H](CCCNC(=N)N)NC(=O)[C@@H]1CCCN1C(=O)[C@H](N)CC1CCCCC1)C(=O)N1CCC[C@H]1C(=O)N[C@@H](CCC(=O)O)C(=O)N[C@@H](CCC(=O)O)C(=O)N[C@@H](Cc1ccc(O)cc1)C(=O)N[C@@H](CC1CCCCC1)C(=O)N[C@@H](CC(=O)O)C(=O)O	2
CC[C@@H](C)[C@H](NC(=O)[C@@H]1CCCN1C(=O)[C@H](CCC(=O)O)NC(=O)[C@H](Cc1ccc(O)cc1)NC(=O)[C@H](CC(=O)O)NC(=O)CNC(=O)CNC(=O)CNC(=O)CNC(=O)[C@H](C)NCC(=O)[C@H](CCCN=C(N)N)NC(=O)[C@@H]1CCCN1C(=O)[C@H](N)CC1CCCCC1)C(=O)N1CCC[C@H]1C(=O)N[C@@H](CCC(=O)O)C(=O)N[C@@H](CCC(=O)O)C(=O)N[C@@H](Cc1ccc(O)cc1)C(=O)N[C@@H](CC1CCCCC1)C(=O)N[C@@H](CC(=O)O)C(=O)O	1.5
CC[C@@H](C)[C@H](NC(=O)[C@@H]1CCCN1C(=O)[C@H](CCC(=O)O)NC(=O)[C@H](Cc1ccc(O)cc1)NC(=O)[C@H](CC(=O)O)NC(=O)CNC(=O)[C@H](CC(N)=O)NC(=O)CNC(=O)CNC(=O)CNC(=O)CN[C@@H]1CCCN1CC(=O)[C@H](CCCN=C(N)N)NC(=O)[C@@H]1CCCN1C(=O)[C@H](N)CC1CCCCC1)C(=O)N1CCC[C@H]1C(=O)N[C@@H](CCC(=O)O)C(=O)N[C@@H](CCC(=O)O)C(=O)N[C@@H](C)C(=O)N[C@@H](CC1CCCCC1)C(=O)N[C@H](CCC(=O)O)C(=O)O	5.7
CC[C@@H](C)[C@H](NC(=O)[C@@H]1CCCN1C(=O)[C@H](CCC(=O)O)NC(=O)[C@H](Cc1ccc(O)cc1)NC(=O)[C@H](CC(=O)O)NC(=O)CNC(=O)CNC(=O)CNC(=O)CNC(=O)CN(C)CC(=O)[C@H](CCCNC(=N)N)NC(=O)[C@@H]1CCCN1C(=O)[C@H](N)Cc1ccccc1)C(=O)N1CCC[C@H]1C(=O)N[C@@H](CCC(=O)O)C(=O)N[C@@H](CCC(=O)O)C(=O)N[C@@H](Cc1ccc(O)cc1)C(=O)N[C@@H](CC1CCCCC1)C(=O)N[C@@H](CC(=O)O)C(=O)O	35
CC[C@@H](C)[C@H](NC(=O)[C@H](CCC(=O)O)NC(=O)[C@H](CCC(=O)O)NC(=O)[C@H](Cc1ccccc1)NC(=O)[C@H](CC(=O)O)NC(=O)CNC(=O)CCCCCNC(=O)CNCC(=O)NCC(=O)[C@H](CCCNC(=N)N)NC(=O)[C@@H]1CCCN1C(=O)[C@H](N)Cc1ccccc1)C(=O)N1CCC[C@H]1C(=O)N[C@@H](CCC(=O)O)C(=O)N[C@@H](CCC(=O)O)C(=O)N[C@@H](Cc1ccc(O)cc1)C(=O)N[C@@H](CC(C)C)C(=O)N[C@@H](CCC(N)=O)C(=O)O	7300
CC[C@@H](C)[C@H](NC(=O)[C@@H]1CCCN1C(=O)[C@H](CCC(=O)O)NC(=O)[C@H](Cc1ccc(O)cc1)NC(=O)[C@H](CC(=O)O)NC(=O)CNC(=O)CNC(=O)CNC(=O)CNC(=O)CN(CC(=O)[C@H](CCCN=C(N)N)NC(=O)[C@@H]1CCCN1C(=O)[C@H](N)CC1CCCCC1)C(C)=O)C(=O)N1CCC[C@H]1C(=O)N[C@@H](CCC(=O)O)C(=O)N[C@@H](CCC(=O)O)C(=O)N[C@@H](Cc1ccc(O)cc1)C(=O)N[C@@H](CC1CCCCC1)C(=O)N[C@@H](CC(=O)O)C(=O)O	1.7
CC[C@@H](C)[C@H](NC(=O)[C@H](CCC(=O)O)NC(=O)[C@H](CCC(=O)O)NC(=O)[C@H](Cc1ccccc1)NC(=O)[C@H](CC(=O)O)NC(=O)CNC(=O)CNC(=O)CNC(=O)CNC(=O)CSCC(=O)[C@H](CCCNC(=N)N)NC(=O)[C@@H]1CCCN1C(=O)[C@@H](Cc1ccccc1)NC(C)=O)C(=O)N1CCC[C@H]1C(=O)N[C@@H](CCC(=O)O)C(=O)N[C@@H](CCC(=O)O)C(=O)N[C@@H](Cc1ccc(O)cc1)C(=O)N[C@@H](CC(C)C)C(=O)N[C@@H](CCC(N)=O)C(=O)O	1060
CC[C@@H](C)[C@H](NC(=O)[C@@H]1CCCN1C(=O)[C@H](CCC(=O)O)NC(=O)[C@H](Cc1ccc(O)cc1)NC(=O)[C@H](CC(=O)O)NC(=O)CNC(=O)[C@H](CC(N)=O)NC(=O)CNC(=O)CNC(=O)CNC(=O)CNC(=O)CN(C)CC(=O)[C@H](CCCNC(=N)N)NC(=O)[C@@H]1CCCN1C(=O)[C@H](N)CC1CCCCC1)C(=O)N1CCC[C@H]1C(=O)N[C@@H](CCC(=O)O)C(=O)N[C@@H](CCC(=O)O)C(=O)N[C@@H](C)C(=O)N[C@@H](CC1CCCCC1)C(=O)N[C@H](CCC(=O)O)C(=O)O	0.87
